Assay results taken from US20240216410A1, “METHODS AND COMPOSITIONS FOR TREATING CANCER THERAPY-INDUCED NEUTROPENIC FEVER AND/OR GVHD” (BOARD OF REGENTS, THE UNIVERSITY OF TEXAS SYSTEM, priority 2021, published 2024).
Where two headings read alike, the source gives them in different places.

Tests used:
[1] = system: A. muciniphila strain (MDA-JAX AM001); assay: Growth of A. muciniphila in BYEM10+ mucin medium (OD600 nm up to 48 hrs); type: cell-based, Akkermansia muciniphila
Experimental: SCFAs were added in 10 and 20 mM final concentration to bacterial culture. Growth of the bacteria at 37° C. in BYEM10+ mucin medium was read at OD600 nm continuously up to 48 hrs. Control Akkermansia culture was grown in absence of compounds.
Using a high-throughput screening strategy analyzing ˜1800 compounds, various other natural compounds in addition to SCFAs were identified for their potential to delay and/or suppress growth of MDA-JAX AM001. […] Growth of the bacteria at 37° C. in BYEM10+ mucin medium was read at OD600 nm continuously up to 48 hrs. Control Akkermansia culture was grown in absence of compounds.
Several active ruminal metabolites were also tested for their ability to delay and/or suppress growth of MDA-JAX AM001. Compounds were selected based on initial testing of Akkermansia growth in medium containing 1× to 3× concentrated ruminal fluid, followed by analysis of metabolite content by MALDI-TOF mass-spectrometry. Ruminal metabolite compounds tested included Malic acid (2 mM and 5.6 mM), 3-Indole acetic acid (5.6 mM and 8.6 mM), Hydrocinnamic acid (2.66 mM and 3.99 mM), Methylmalonic acid (8.4 mM and 10.6 mM), Glucoranic acid (16.8 mM), Galacturonic acid (14 mM), and Bis-hydroxy methyl propionic acid (22 mM). These ruminal metabolite compounds have also been found in human stool, as analyzed by MALDI-TOF mass spectrometry. […] Growth of the bacteria at 37° C. in BYEM10+ mucin medium was read at OD600 nm continuously up to 48 hrs. Control Akkermansia culture was grown in absence of compounds.

[2] = system: Akkermansia
[3] = system: A. muciniphila (MDA-JAX AM001); details: for mucin glycan utilization by A. muciniphila: physiological concentrations, varying pH, 48 hours of culture
Experimental: The impact of DR-induced metabolic changes in the colonic lumen on A. muciniphila behavior was also studied using an in vitro mucin glycan consumption assay. A novel A. muciniphila (MDA-JAX AM001) strain was isolated from the feces of C57BL6 mice and introduced to liquid media supplemented with PGM, and the effects of varying pH either alone or combined with the presence of physiological concentrations of acetate, propionate, and butyrate were evaluated.

[4] = system: Akkermansia; assay: Total body radiotherapy (9 Gy RT) mice treated with azithromycin or propionate; type: in vivo; details: for colonic mucus layer thickness: 9 Gy total body RT; for colonic tissue levels of IL-1b, CCL2, CCL7, IL-22, CXCL1 and CXCL10 / ocular surface temperatures (hypothermia) / outgrowth of Akkermansia: day 6 after RT; for outgrowth of Akkermansia: 16S rRNA gene sequencing
Experimental: C57BL/6 mice were exposed to a single myeloablative dose of total body radiotherapy (9 Gy RT), and stool samples were evaluated 6 days later by 16S rRNA gene sequencing. […] Colonic tissue samples were cut cross-sectionally and mucus layer thickness was averaged across 8 equally-spaced circumferential sites (FIG. 7) to evaluate whether the dense colonic mucus layer, which normally separates bacteria-rich luminal contents from the colonic epithelium, was affected by irradiation in mice.
Additionally, ocular surface temperatures were non-invasively measured in mice using a published method (16) because in contrast to humans, mice are develop hypothermia in response to exposure to inflammatory ligands such as LPS (17) and in models of sepsis (18).
The degree of inflammation in colonic tissue was directed measured by quantifying levels of a panel of cytokines (FIG. 5C).

[5] = system: Akkermansia; assay: Dietary restriction in mice with narrow-spectrum antibiotics in the drinking water; type: in vivo; details: antibiotic in drinking water from 5 days prior to dietary restriction
Description: Diet is a major determinant of intestinal microbiome composition, and the indirect impact of RT on microbiome composition due to a reduction in intake of food in mice was investigated. Mice were individually housed in metabolic cages following RT to quantify effects of RT on food and water intake. Within 2 days following RT, mice had reduced their oral intake to approximately 2 grams a day, or a 50% reduction (FIG. 3A). To evaluate whether dietary restriction (DR) could impact intestinal microbiome composition and the colonic mucus layer, normal, un-irradiated mice were limited 2 grams of chow per mouse per day for 7 days.
Because commercially-available mice lacking Akkermansia are not easy to find (12), narrow-spectrum antibiotics were used to evaluate the specific contribution of Akkermansia to mucus thinning during DR.

[6] = human, in vivo
Experimental: In this study, data from 295 patients with acute myeloid leukemia (AML) or myelodysplastic syndrome (MDS) who underwent allo-HSCT with tacrolimus and methotrexate as GVHD prophylaxis following conditioning therapy with fludarabine and 5 busulfan from 2011 to 2016 were retrospectively examined. The incidence of acute intestinal GVHD until day 100 after transplant was evaluated and compared were patients who received neither cefepime nor meropenem, those who received cefepime alone, those who received meropenem alone, and those who received both cefepime and meropenem during the period from days −10 to 30 relative to allo-HSCT infusion.
Retrospective study design. 295 patients with acute myeloid leukemia (AML) or myelodysplastic syndrome (MDS) underwent allogeneic hematopoietic stem cell transplantation (allo-HSCT) with fludarabine plus busulfan as conditioning therapy and tacrolimus and methotrexate as GVHD prophylaxis from 2011 and 2016 and were analyzed retrospectively. Patients were classified by antibiotic exposures, including those who received neither cefepime nor meropenem, those who received cefepime alone, those who received meropenem alone and those who received both cefepime and meropenem from day −10 to day 30 after allo-HSCT. Acute GVHD was diagnosed by clinical and/or pathological findings, and graded according to standard criteria (56).

[7] = Melphalan therapy in mice: intestinal microbiome and colonic mucus layer; type: in vivo; details: 6 days following melphalan 20 mg/kg, C57BL/6 mice
Description: Myeloablative RT, previously a foundational pillar that made HCT possible, has been progressively replaced by chemotherapy, particularly alkylating agents (11). […] An expansion of Bacteroides was also seen, though this was not statistically significant after correction for multiple comparisons, and was accompanied by a loss of Muribaculaceae, similar to that following RT.

[8] = Malic acid 2 and 5.6 mM, 3-Indole acetic acid 5.6 and 8.6 mM, Hydrocinnamic acid 2.66 and 3.99 mM, Methylmalonic acid 8.4 and 10.6 mM, Glucoranic acid 16.8 mM, Galacturonic acid 14 mM, Bis-hydroxy methyl propionic acid 22 mM
[9] = Brucine 2.5 and 5 mM, Methyl-β-D-galactopyranoside 14 mM, Resacetophenone 3.3 and 5 mM, Serotonin 4.7 and 7.1 mM
[10] = acidified drinking water (pH3), one week dietary restriction
[11] = 10 mM and 20 mM, vs mucin-only control, 37° C.
[12] = drinking water at neutral pH, dietary restriction

SMILES: O=C(O)Cc1c[nH]c2ccccc12 [3-Indole acetic acid]
- growth of MDA-JAX AM001 [1, 8]: delay and inhibit MDA-JAX AM001 growth

SMILES: CC(CO)(CO)C(=O)O [Bis-hydroxy methyl propionic acid]
- growth of MDA-JAX AM001 [1, 8]: delay and inhibit MDA-JAX AM001 growth

SMILES: COc1cc2c(cc1OC)[C@@]13CCN4CC5=CCO[C@H]6CC(=O)N2[C@H]1[C@H]6[C@H]5C[C@H]43 [Brucine]
- growth of MDA-JAX AM001 [1, 9]: delay and suppress the growth of MDA-JAX AM001

SMILES: O=C[C@H](O)[C@@H](O)[C@@H](O)[C@H](O)C(=O)O [Galacturonic acid]
- growth of MDA-JAX AM001 [1, 8]: delay and inhibit MDA-JAX AM001 growth

SMILES: O=C(O)CCc1ccccc1 [Hydrocinnamic acid]
- growth of MDA-JAX AM001 [1, 8]: delay and inhibit MDA-JAX AM001 growth

SMILES: O=C(O)CC(O)C(=O)O (stereo not drawn) [Malic acid]
- growth of MDA-JAX AM001 [1, 8]: delay and inhibit MDA-JAX AM001 growth

SMILES: CO[C@@H]1O[C@H](CO)[C@H](O)[C@H](O)[C@H]1O [Methyl-β-D-galactopyranoside]
- growth of MDA-JAX AM001 [1, 9]: delay and suppress the growth of MDA-JAX AM001

SMILES: CC(C(=O)O)C(=O)O [Methylmalonic acid]
- growth of MDA-JAX AM001 [1, 8]: delay and inhibit MDA-JAX AM001 growth

SMILES: CC(=O)c1ccc(O)cc1O [Resacetophenone]
- growth of MDA-JAX AM001 [1, 9]: delay and suppress the growth of MDA-JAX AM001

SMILES: NCCc1c[nH]c2ccc(O)cc12 [Serotonin]
- growth of MDA-JAX AM001 [1, 9]: delay and suppress the growth of MDA-JAX AM001

SMILES: CC(=O)[O-].[Na+] [acetate, sodium acetate]
- expansion of Akkermansia [2, 10]: no such preventative effect
- fecal / colonic luminal pH [2, 10]: lowering the pH in the colonic lumen
- thinning of the colonic mucus layer [2, 10]: no such preventative effect
- mucin glycan utilization by A. muciniphila [3]: negligible effects on A. muciniphila behavior

SMILES: CC[C@H]1OC(=O)[C@H](C)[C@@H](O[C@H]2C[C@@](C)(OC)[C@@H](O)[C@H](C)O2)[C@H](C)[C@@H](O[C@@H]2O[C@H](C)C[C@H](N(C)C)[C@H]2O)[C@](C)(O)C[C@@H](C)CN(C)[C@H](C)[C@@H](O)[C@]1(C)O [azithromycin]
- colonic mucus layer thickness [4]: effective in preserving colonic mucus layer thickness
- colonic tissue levels of IL-1b, CCL2, CCL7, IL-22, CXCL1 and CXCL10 [4]: reduced
- ocular surface temperatures (hypothermia) [4]: less depressed at day 6
- outgrowth of Akkermansia [4]: very effective at preventing outgrowth of Akkermansia
- bacterial populations depleted [5]: depleted Akkermansia as well as some gram positive populations
- colonic mucus layer thinning during dietary restriction [5]: prevented thinning of the colonic mucus layer

SMILES: CCCC(=O)[O-].[Na+] [butyrate, sodium butyrate]
- mucin glycan utilization by A. muciniphila [3]: negligible effects on A. muciniphila behavior

SMILES: CO/N=C(\C(=O)N[C@@H]1C(=O)N2C(C(=O)[O-])=C(C[N+]3(C)CCCC3)CS[C@H]12)c1csc(N)n1 [cefepime]
- Acute GVHD Grade 0, number of patients [6]: 57
- Acute GVHD Grade 0, percentage of patients [6]: (46%)
- Acute GVHD Grade I, number of patients [6]: 26
- Acute GVHD Grade I, percentage of patients [6]: (21%)
- Acute GVHD Grade II, number of patients [6]: 34
- Acute GVHD Grade II, percentage of patients [6]: (27%)
- Acute GVHD Grade III-IV, number of patients ([6]; iv): 7
- Acute GVHD Grade III-IV, percentage of patients ([6]; iv): (6%)

SMILES: CC(C)CC(=O)O [isovalerate]
- growth of MDA-JAX AM001 [1, 11]: suppress and/or delay MDA-JAX AM001 growth

SMILES: N[C@@H](Cc1ccc(N(CCCl)CCCl)cc1)C(=O)O [melphalan]
- changes in the intestinal microbiome [7]: increase in the abundance of Akkermansia
- colonic mucus layer thickness [7]: significantly thinner

SMILES: CCC(=O)[O-].[Na+] [propionate, sodium propionate]
- expansion of Akkermansia [2, 10]: mitigated expansion of Akkermansia
- fecal / colonic luminal pH [2, 10]: reduced fecal pH
- thinning of the colonic mucus layer [2, 10]: prevented thinning of the mucus layer
- expansion of Akkermansia [2, 12]: trended towards preventing Akkermansia expansion
- thinning of the colonic mucus layer [2, 12]: sufficient to prevent mucus thinning
- growth of A. muciniphila ([3]; higher levels, OD 600): delays in growth
- mucin glycan utilization by A. muciniphila [3]: inhibitory effects on mucin glycan utilization
- colonic mucus layer thickness [4]: effective in preserving colonic mucus layer thickness
- colonic tissue levels of IL-1b, CCL2, CCL7, IL-22, CXCL1 and CXCL10 [4]: prevented elevation of all of these cytokines, with the exception of CXCL1
- ocular surface temperatures (hypothermia) [4]: less depressed at day 6
- outgrowth of Akkermansia [4]: not effective

SMILES: [H]/N=C(/N)N[C@H]1[C@H](O)[C@@H](O)[C@H](O[C@@H]2O[C@@H](C)[C@](O)(C=O)[C@H]2O[C@@H]2O[C@@H](CO)[C@H](O)[C@@H](O)[C@@H]2NC)[C@@H](N/C(N)=N\[H])[C@@H]1O [streptomycin]
- bacterial populations depleted [5]: depleted certain gram-positive bacteria
- colonic mucus layer thinning during dietary restriction [5]: Neither streptomycin nor vancomycin had a significant effect on mucus barrier loss

SMILES: CCCCC(=O)O [valerate]
- growth of MDA-JAX AM001 [1, 11]: suppress and/or delay MDA-JAX AM001 growth

SMILES: CN[C@H](CC(C)C)C(=O)N[C@H]1C(=O)N[C@@H](CC(N)=O)C(=O)N[C@H]2C(=O)N[C@H]3C(=O)N[C@H](C(=O)N[C@H](C(=O)O)c4cc(O)cc(O)c4-c4cc3ccc4O)[C@H](O)c3ccc(c(Cl)c3)Oc3cc2cc(c3O[C@@H]2O[C@H](CO)[C@@H](O)[C@H](O)[C@H]2O[C@H]2C[C@](C)(N)[C@H](O)[C@H](C)O2)Oc2ccc(cc2Cl)[C@H]1O [vancomycin]
- bacterial populations depleted [5]: depleted both gram-positive bacteria and some Bacteroidetes
- colonic mucus layer thinning during dietary restriction [5]: Neither streptomycin nor vancomycin had a significant effect on mucus barrier loss
